Laboratory results from patent US20210254001A1, “FcyRIIIa signaling generates Bcl6+PD1+CD4+ Tfh-like cells” (priority 2020, published 2021).
Entries after “also recorded” stand apart in the source; their conditions may differ.

System: purified human CD4+ T cells
Assay: IL-21 production in IC-treated CD4+ T cells with Syk inhibitor
Assay type: cell-based
Conditions: P505 10 nM; cells producing IL-21 from IC treatment; FIG. 4F (A)

Structure (SMILES): NC(=O)c1cnc(N[C@@H]2CCCC[C@@H]2N)nc1Nc1cccc(-n2nccn2)c1 [P505]
- IL-21 production: IL-21 production is blocked; also recorded: inhibits IL-21 production
